Results: patent US6355799B1, “Substituted benzene compounds, process for their preparation, and herbicidal and defoliant compositions containing them” (ISK Americas Incorporated, priority 1997, dated 2002)

Assays:
Format in all cases: in vivo
[1] = test system: upland rice (Oryza sp., var. Tebonnet, RICE); experiment: Pre-emerge test, crop safety; conditions: rating scale 0-100, 14 days after application
Procedure, shortened: (§1)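 Compounds in acetone were track-sprayed at 187 l/ha, 15–1000 g ai/ha, onto sandy loam pots. Pre-emerge seeds were sown one day before spraying, with surface watering afterwards. Post-emerge plants were at the 2–3 leaf stage and sprayed with 0.25% v/v non-ionic surfactant. Injury was rated 0–100 at 14 days.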

[2] = test system: field corn (Zea mays L., var. Dekalb 535, CORN); experiment: Pre-emerge test, crop safety; conditions: rating scale 0-100, 14 days after application
Procedure, shortened: as §1

[3] = test system: redroot pigweed (Amaranthus retroflexus, AMARE); experiment: Pre-emerge test, greenhouse herbicide activity screening; conditions: rating scale 0-100, 14 days after application
Procedure, shortened: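 Visual ratings on a 0-100 scale (0 no damage, 100 all plants dead) were taken at 14 days after treatment. Rates of 15-1000 g ai/ha in acetone, 187 l/ha, were sprayed onto soil one day after planting (pre-emerge) or onto 2-3 leaf plants with 0.25% v/v surfactant (post-emerge).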

[4] = test system: upland rice (Oryza sp., var. Tebonnet, RICE); experiment: Post-emerge test, crop safety; conditions: rating scale 0-100 (0 no damage, 100 complete death), 14 days after application
Procedure, shortened: (§2)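 Herbicidal damage is scored 0 (none) to 100 (complete plant death) two weeks after a simulated field spray. Rates span 15–1000 g ai/ha, delivered in acetone at 187 l/ha. For post-emergence treatments, plants have 2–3 leaves and the spray carries 0.25% v/v non-ionic surfactant.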

[5] = test system: field corn (Zea mays L., var. Dekalb 535, CORN); experiment: Post-emerge test, crop safety; conditions: rating scale 0-100 (0 no damage, 100 complete death), 14 days after application
Procedure, shortened: as §2

[6] = test system: barnyardgrass (Echinochloa crus-galli, ECHCG); experiment: Pre-emerge test, greenhouse herbicide activity screening; conditions: rating scale 0-100, 14 days after application
Procedure, shortened: as §2

[7] = test system: johnsongrass (Sorghum halepense, SORHA); experiment: as above; conditions: rating scale 0-100, 14 days after application
Procedure, shortened: as §2

[8] = test system: green foxtail (Setaria viridis, SETVI); experiment: as above; conditions: rating scale 0-100, 14 days after application
Procedure, shortened: as §2

[9] = test system: velvetleaf (Abutilon theophrasti, ABUTH); experiment: as above; conditions: rating scale 0-100, 14 days after application
Procedure, shortened: as §2

[10] = test system: sicklepod (Cassia obtusifolia, CASOB); experiment: as above; conditions: rating scale 0-100, 14 days after application
Procedure, shortened: as §2

[11] = test system: ivyleaf morningglory (Ipomoea hederacea, IPOHE); experiment: as above; conditions: rating scale 0-100, 14 days after application
Procedure, shortened: as §2

[12] = test system: lambsquarters (Chenopodium album, CHEAL); experiment: as above; conditions: rating scale 0-100, 14 days after application
Procedure, shortened: as §2

[13] = test system: large crabgrass (Digitaria sanguinalis, DIGSA); experiment: as above; conditions: rating scale 0-100, 14 days after application
Procedure, shortened: as §2

[14] = test system: common ragweed (Ambrosia artemisizfolia L., AMBEL); experiment: Post-emerge test, greenhouse herbicide activity screening; conditions: rating scale 0-100 (0 no damage, 100 complete death), 14 days after application
Procedure, shortened: (§3)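 Fourteen days after spraying, crop and weed injury was graded visually from 0, no effect, to 100, every plant dead. Test substances were dissolved in acetone and applied at 15–1000 g ai/ha with a flat-fan nozzle. Application was either pre-emergence, one day after sowing, or post-emergence at the 2–3 leaf stage.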

[15] = test system: barnyardgrass (Echinochloa crus-galli, ECHCG); experiment: as above; conditions: rating scale 0-100 (0 no damage, 100 complete death), 14 days after application
Procedure, shortened: as §3

[16] = test system: johnsongrass (Sorghum halepense, SORHA); experiment: as above; conditions: rating scale 0-100 (0 no damage, 100 complete death), 14 days after application
Procedure, shortened: as §3

[17] = test system: green foxtail (Setaria viridis, SETVI); experiment: as above; conditions: rating scale 0-100 (0 no damage, 100 complete death), 14 days after application
Procedure, shortened: as §3

[18] = test system: velvetleaf (Abutilon theophrasti, ABUTH); experiment: as above; conditions: rating scale 0-100 (0 no damage, 100 complete death), 14 days after application
Procedure, shortened: as §3

[19] = test system: sicklepod (Cassia obtusifolia, CASOB); experiment: as above; conditions: rating scale 0-100 (0 no damage, 100 complete death), 14 days after application
Procedure, shortened: as §3

[20] = test system: ivyleaf morningglory (Ipomoea hederacea, IPOHE); experiment: as above; conditions: rating scale 0-100 (0 no damage, 100 complete death), 14 days after application
Procedure, shortened: as §3

[21] = test system: lambsquarters (Chenopodium album, CHEAL); experiment: as above; conditions: rating scale 0-100 (0 no damage, 100 complete death), 14 days after application
Procedure, shortened: as §3

[22] = test system: redroot pigweed (Amaranthus retroflexus, AMARE); experiment: as above; conditions: rating scale 0-100 (0 no damage, 100 complete death), 14 days after application
Procedure, shortened: as §3

[23] = test system: large crabgrass (Digitaria sanguinalis, DIGSA); experiment: as above; conditions: rating scale 0-100 (0 no damage, 100 complete death), 14 days after application
Procedure, shortened: as §3

## COc1c(Cl)cc(F)c(-n2c(=O)cc(C(F)(F)F)n(C)c2=O)c1CC(Cl)C(=O)OCC(F)(F)C(F)(F)C(F)(F)F (single isomer, unassigned) [14-24]
[1]; 63 g ai/ha
  Pre-emerge phytotoxicity rating, crop damage RICE: 0
[1]; 250 g ai/ha
  Pre-emerge phytotoxicity rating, crop damage RICE: 20
[2]; 63 g ai/ha
  Pre-emerge phytotoxicity rating, crop damage CORN: 0
[2]; 250 g ai/ha
  Pre-emerge phytotoxicity rating, crop damage CORN: 0
[3]; 63 g ai/ha
  Pre-emerge herbicidal activity, phytotoxicity rating AMARE: 50
[3]; 250 g ai/ha
  Pre-emerge herbicidal activity, phytotoxicity rating AMARE: 100
[4]; Rate 63 g ai/ha
  Post-emerge phytotoxicity rating RICE (crop damage): 10
[4]; Rate 250 g ai/ha
  Post-emerge phytotoxicity rating RICE (crop damage): 50
[5]; Rate 63 g ai/ha
  Post-emerge phytotoxicity rating CORN (crop damage): 10
[5]; Rate 250 g ai/ha
  Post-emerge phytotoxicity rating CORN (crop damage): 20
[6]; 63 g ai/ha
  Pre-emerge herbicidal activity, phytotoxicity rating ECHCG: 0
[6]; 250 g ai/ha
  Pre-emerge herbicidal activity, phytotoxicity rating ECHCG: 0
[7]; 63 g ai/ha
  Pre-emerge herbicidal activity, phytotoxicity rating SORHA: 0
[7]; 250 g ai/ha
  Pre-emerge herbicidal activity, phytotoxicity rating SORHA: 0
[8]; 63 g ai/ha
  Pre-emerge herbicidal activity, phytotoxicity rating SETVI: 0
[8]; 250 g ai/ha
  Pre-emerge herbicidal activity, phytotoxicity rating SETVI: 0
[9]; 63 g ai/ha
  Pre-emerge herbicidal activity, phytotoxicity rating ABUTH: 0
[9]; 250 g ai/ha
  Pre-emerge herbicidal activity, phytotoxicity rating ABUTH: 80
[10]; 63 g ai/ha
  Pre-emerge herbicidal activity, phytotoxicity rating CASOB: 0
[10]; 250 g ai/ha
  Pre-emerge herbicidal activity, phytotoxicity rating CASOB: 30
[11]; 63 g ai/ha
  Pre-emerge herbicidal activity, phytotoxicity rating IPOHE: 0
[11]; 250 g ai/ha
  Pre-emerge herbicidal activity, phytotoxicity rating IPOHE: 0
[12]; 63 g ai/ha
  Pre-emerge herbicidal activity, phytotoxicity rating CHEAL: 0
[12]; 250 g ai/ha
  Pre-emerge herbicidal activity, phytotoxicity rating CHEAL: 50
[13]; 63 g ai/ha
  Pre-emerge herbicidal activity, phytotoxicity rating DIGSA: 20
[13]; 250 g ai/ha
  Pre-emerge herbicidal activity, phytotoxicity rating DIGSA: 80
[14]; Rate 63 g ai/ha
  Post-emerge Herbicidal Activity, phytotoxicity rating AMBEL: 50
[14]; Rate 250 g ai/ha
  Post-emerge Herbicidal Activity, phytotoxicity rating AMBEL: 50
[15]; Rate 63 g ai/ha
  Post-emerge Herbicidal Activity, phytotoxicity rating ECHCG: 100
[15]; Rate 250 g ai/ha
  Post-emerge Herbicidal Activity, phytotoxicity rating ECHCG: 100
[16]; Rate 63 g ai/ha
  Post-emerge Herbicidal Activity, phytotoxicity rating SORHA: 0
[16]; Rate 250 g ai/ha
  Post-emerge Herbicidal Activity, phytotoxicity rating SORHA: 50
[17]; Rate 63 g ai/ha
  Post-emerge Herbicidal Activity, phytotoxicity rating SETVI: 0
[17]; Rate 250 g ai/ha
  Post-emerge Herbicidal Activity, phytotoxicity rating SETVI: 50
[18]; Rate 63 g ai/ha
  Post-emerge Herbicidal Activity, phytotoxicity rating ABUTH: 70
[18]; Rate 250 g ai/ha
  Post-emerge Herbicidal Activity, phytotoxicity rating ABUTH: 100
[19]; Rate 63 g ai/ha
  Post-emerge Herbicidal Activity, phytotoxicity rating CASOB: 0
[19]; Rate 250 g ai/ha
  Post-emerge Herbicidal Activity, phytotoxicity rating CASOB: 0
[20]; Rate 63 g ai/ha
  Post-emerge Herbicidal Activity, phytotoxicity rating IPOHE: 20
[20]; Rate 250 g ai/ha
  Post-emerge Herbicidal Activity, phytotoxicity rating IPOHE: 40
[21]; Rate 63 g ai/ha
  Post-emerge Herbicidal Activity, phytotoxicity rating CHEAL: 80
[21]; Rate 250 g ai/ha
  Post-emerge Herbicidal Activity, phytotoxicity rating CHEAL: 90
[22]; Rate 63 g ai/ha
  Post-emerge Herbicidal Activity, phytotoxicity rating AMARE: 40
[22]; Rate 250 g ai/ha
  Post-emerge Herbicidal Activity, phytotoxicity rating AMARE: 90
[23]; Rate 63 g ai/ha
  Post-emerge Herbicidal Activity, phytotoxicity rating DIGSA: 95
[23]; Rate 250 g ai/ha
  Post-emerge Herbicidal Activity, phytotoxicity rating DIGSA: 100
